According to US8673289B2, “Attenuated uracil auxotroph of an apicomplexan and use thereof” (priority 2007, dated 2014):

Legend:
Type in all cases: cell-based, Toxoplasma gondii
[1] = test system: T. gondii carrying a single allele of TK from pDHFRm2m3-TK-TS; test: plaque formation in ganciclovir, TK-transfected parasites
Text: A modified hit and run mutagenesis was devised for knocking out the T. gondii gene encoding CPSII. First, a new plasmid vector was developed for positive and negative selection analogous to the plasmid described by Fox, et al. ((1999) Mol. Biochem. Parasitol. 98:93-103), except using the herpes simplex virus type I thymidine kinase (TK) gene instead of bacterial cytosine deaminase in the linker region of DHFR-TS. To create this plasmid two primers, a forward primer GGGAGATCTATGGCTTCGTACCCCGGCCATCAA (SEQ ID NO:10) and a reverse primer GGGGATCCTCAGTTAGCCTCCCCCATCTCCCG (SEQ ID NO:11) were used to PCR amplify, via standard conditions, the ganciclovir hypersensitive TK75 HSVTK allele (Black, et al. (1996) Proc. Natl Acad. Sci. USA 93:3525-3529). The forward primer contains a BglII site and the reverse primer a BamHI site. Following BamHI and BglII digestion of the ˜1130 bp PCR product, the TK allele was ligated into plasmid pDHFRm2m3-FLG-TS which was digested at the unique BamHI site in the FLAG epitope linker. The TK PCR primers were designed to join with pDHFRm2m3-FLG-TS to produce an in-frame insertion of TK between DHFR and TS in a plasmid called pDHFRm2m3-TK-TS, similar to previously described pDHFRm2m3-CD-TS plasmid (Fox, et al. (1999) supra). The trifunctional enzyme plasmid with TK was tested to confirm function of all three enzymes. […]

cps1-1 and cps2-1 [2] = test: drug sensitivity of cps1-1 and cps2-1 in replication and plaque assays; settings: 10 μM
Text: It is believed that the single recombination into the CPSII locus only partially disrupted expression of CPSII activity in cps1 and cps2. […] Cps1 and cps2 were thus utilized as the parent strain background in which to select a more highly attenuated pyrimidine auxotroph mutant. Both the cps1 and cps2 mutants express a TK allele which was inserted into the CPSII locus. […] Then, approximately 1-2×10^5 cps1 or cps2 parasites was inoculated into a 25 cm^2 HFF flask and selected negatively in the presence of 10 μM ganciclovir plus 200 μM uracil. This is 20 times the dose of ganciclovir necessary to completely block plaque formation of these mutants. […] The parasites which were growing in ganciclovir plus uracil were subcloned in ganciclovir and uracil (same conditions) and individual clones, cps1-1 and cps2-1, were identified from each parent, respectively, for further analysis. The cps1-1 and cps2-1 subclones were first tested for their sensitivity to pyrimethamine. The theory of negative selective in only ganciclovir is that a mutant that disrupts expression of the TK allele should simultaneously acquire sensitivity to pyrimethamine due to loss of the expression of the fused trifunctional DHFR-TK-TS transgene(s) inserted into the CPSII locus of cps1 and cps2.

[3] = test system: mutants cps1, cps2, cps3, cps4; test: plaque formation in ganciclovir, cps mutants
cps1 and cps2 mutants = test: pyrimidine dependence of cps1 and cps2 replication and plaque formation; settings: relatively low (thymine, thymidine: moderate) concentrations in medium
Text: However, all of these mutants are somewhat “leaky” in that there was not an absolute growth (replication) dependence on uracil addition to the growth medium for replication. Each of these mutants grows at a moderate (½ of normal) growth rate for the first 2 days following infection of a host cell producing vacuoles that contained 16 to 32 parasites by 3 days post infection. In contrast, RH parasites are lysed out of their primary vacuoles at this time (3 days, >64 parasites). However, the cps mutants slow after 3 days and many parasites never (about ⅓) break out of their primary vacuole. If the primary vacuole breaks, a few parasites can be detected at the site of infection but the infection site always involves a small zone of infection that never forms a visible plaque in a standard 7 day plaque assay. To quantitate growth of these mutants, HFF flasks were inoculated with […] or cps2 parasites (about a multiplicity of infection (MOI) of 1 parasite per 20 HFF cells). After 2 hours of attachment and invasion (all of these mutants have normal attachment and invasion phenotypes as scored by counting percent entered parasites into host cells as a function of time post-inoculation), different concentrations of different pyrimidine compound was added to parallel infected HFF flasks. As a function of time post pyrimidine addition (t=0 hour) the number of parasites per vacuole was scored for 50 vacuoles as described by Fox et al. ((1999) supra). The number of parasite doublings was calculated based on 1 parasite entering each primary vacuole. Thus, 1 doubling=2 parasites per vacuole, 3 doublings=8 parasites per vacuole, and 5 doublings=32 parasites per vacuole. The pyrimidine dependence of cps1 and cps2 replication (doublings of parasites in the vacuole) was plotted graphically. […] The response to thymine and thymidine was additionally informative about the cause of the growth defect in cps1 and cps2. […] This is believed to be caused by the putative defect in the cps1 and cps2 mutants which is a reduced “pool” size of UMP. If UMP pools (ultimately used for RNA and DNA synthesis) are lowered it follows that a resulting decrease in TMP pools is expected since UMP is the precursor of TMP in T. gondii and all other apicomplexan parasites which normally lack TK activity. However, since cps1 and cps2 now express a TK activity carried into the parasite by the p53KOX3-1R plasmid, exemplified by sensitivity of these mutants to ganciclovir (specific to HSV TK), feeding parasites either thymine or thymidine is expected to increase TMP pools. Thus, it appears that moderate levels of thymine or thymidine partially rescue growth of cps1 and cps2 by restoring TMP pools. […] Since the parasite has no mechanism to convert TMP back to UMP there is still a defect in the UMP pool in cps1 and cps2 even with added thymine or thymidine and rescue is never complete. The ability of cps1 and cps2 mutants to form plaques on HFF monolayers in the standard 7 day assay paralleled the pyrimidine dependence of parasite replication in vacuoles.
The cps1 and cps2 mutants were inoculated intraperitoneally (i.p.) into balb/c mice to measure parasite virulence compared to virulent RH parasites. Both mutant cps1 and cps2 had equal virulence as RH parasites in balb/c mice (Jackson Labs), killing all mice within 10 days of i.p. inoculation (group size was four mice per parasite strain). Only 100 parasites (˜50 PFU) of each parasite strain was needed to kill all mice in each group. This pattern of virulence can be understood by re-examining the pyrimidine dependence of cps1 and cps2 growth. Uridine is believed to be the pyrimidine responsible for virulence of cps1 and cps2 in mice. Only 5 μM uridine completely rescues normal plaque size of cps1 and cps2 in vitro. Plasma concentrations of uridine in mice are approximately 5 to 10 μM.

cps1-1 and cps2-1 [4] = test: pyrimidine rescue of cps1-1 and cps2-1 replication and plaque formation
Experimental: No pyrimidine compound at less than 25 μM could rescue plaque formation of cps1-1 or cps2-1. […] Uridine was quite poor at rescue of plaque formation in cps1-1 and cps2-1.
A more detailed growth response to pyrimidine, measured as parasite replications (doublings) was performed for cps1-1 and cps2-1 and compared to the results previously obtained for […]. […] Uridine rescue was poor, with a slow restoration of growth at very high amounts, >400 μM. Deoxyuridine rescue was significant, but again, full growth rate was not restored at any concentration of deoxyuridine. Rescue with uracil was robust, but only in a limited range of concentration. Full restoration of growth rate in cps1-1 and cps2-1 was possible only with uracil added between 200 and 400 μM. […] This phenotype can only be observed in T. gondii pyrimidine auxotroph mutants, not in wild-type parasites with intact de novo pyrimidine synthesis pathways.
The pyrimidine growth dependence of mutant cps1-1 on the pyrimidine salvage pathway was further documented in thymidine interference experiments. Mutant cps1-1 plaques well in 250 μM uracil or deoxyuridine, but not in 1000 μM thymidine. Since thymidine at 1000 μM is known to inhibit approximately 90% of the parasite nucleoside phosphorylase activity specific for cleavage of deoxyuridine (Iltzsch, (1993) J. Euk. Micro. 40:24-28), growth of cps1-1 was tested in combinations of 1000 μM thymidine and 250 μM uracil or 250 μM deoxyuridine. All pyrimidine salvage in T. gondii must pass through uracil and UPRT conversion of uracil to UMP. In contrast, thymidine has no effect on UPRT activity. Thus, if growth of cps1-1 were dependent on deoxyuridine supplementation then replication in this condition may be inhibited by co-supplementing with 1000 μM thymidine. […] Thus, when cps1-1 is grown in deoxyuridine the parasite strictly requires nucleoside phosphorylase activity to cleave deoxyuridine for growth. […] Thus, cps1-1 and cps2-1 rely strictly on pyrimidine salvage enzymes for growth and further, the HFF host cell in vitro cannot supply sufficient pyrimidines for growth of cps1-1 or cps2-1. […] Such potential inhibitors can only be identified using a pyrimidine auxotroph such as provided in the instant invention.
To assess reversion, 10^6 to 10^7 cps1-1 or cps2-1 parasites were periodically inoculated into HFF flasks supplemented with 5 μM uridine. This concentration of uridine is sufficient to rescue the parent strains (cps1 and cps2) of cps1-1 and cps2-1.

wild-type T. gondii = test: labeling of parasites with [3H]pyrimidines (pyrimidine salvage); settings: parasites grown in host cells
Experimental: (§1) Initial experiments primarily involved an enzymatic analysis of drug resistant mutants and the incorporation of various pyrimidine analogs into T. gondii RNA and DNA as an indication of pyrimidine salvage when parasites were grown in either normal host or mutant host cells. All biochemical communications between the parasite and host cells cross the vacuolar membrane which is now known to contain “pores” that permit the passage of nucleobases ranging in molecular mass from 112 daltons up to 244 daltons. The size of the pores is estimated to be approximately 1500 daltons. A T. gondii mutant resistant to 5-fluorodeoxyuridine (FUDR-1) had lost uracil phosphoribosyltransferase (UPRT), an enzyme which is absent in normal host cells (Pfefferkorn (1978) Expt. Parasitol. 44:26-35). […] FUDR-1 mutant parasites were not labeled with [^3H]deoxyuridine. […] FUDR-1 mutant parasites were not labeled with [^3H]uridine. […] FUDR-1 (UPRT knock-out) parasites were not labeled with [^3H]uracil.
Similarly, since uracil only labels the parasite, due to the parasite UPRT, which is absent in the host, the pyrimidine pools of the parasite are also unavailable to the host. Thus, there is no detectable pyrimidine traffic detected between the parasite and host.

tachyzoites = test: uracil incorporation assay; settings: [3H]uracil 25 μg/ml
Experimental: Experiments to evaluate the feasibility of constructing pyrimidine auxotrophs of T. gondii were performed. Pyrimidine auxotrophy relies on the ability to feed mutant parasites a pyrimidine nucleobase, such as uracil, in culture medium in amounts that will restore parasite growth to near normal levels. Experiments were therefore conducted to measure whether uracil incorporation into parasites in culture could account for normal replication and normal growth rates. In these experiments, biochemically saturating amounts of [^3H]uracil (25 μg/ml) were added to the growth medium and the quantitative incorporation of label into parasite RNA and DNA was determined over a four hour interval. It was calculated using known values that about 82% of the pyrimidines incorporated into parasite nucleic acids were derived from the uracil which was added to the growth medium as a supplement.
The uracil incorporation assay, results and calculation of uracil incorporation were carried out as follows. Parasites (2.09×10^7) were labeled for 4 hours in medium containing [^3H]uracil at 25 μg per ml or 0.223 μmole per ml, wherein the specific activity of uracil was 34.3 CPM per pmole (CPM=counts per minute). […] Based upon these parameters, it was concluded that 82% of incorporated pyrimidines originate from uracil when it is added to medium.

FUDR-1 mutant parasites = test: labeling of FUDR-1 (UPRT knock-out) parasites with [3H]pyrimidines
Experimental: as §1

RH parasite = test: plaque formation of RH in very high uracil; settings: 2000 or 4000 μM uracil

Compound | ganciclovir concentration in which parasites do not form plaques [1] [μm] | sensitivity of cps1-1 and cps2-1 to ganciclovir (cps1-1 and cps2-1 [2]) | ganciclovir concentration at which ability to form plaques is lost [3] [µM] | rescue of growth rate / replication of cps1 and cps2 (cps1 and cps2 mutants) | plaque formation of cps1-1 (cps1-1 and cps2-1 [4]; 250 μM supplement) | rescue of replication (doublings) of cps1-1 and cps2-1 (cps1-1 and cps2-1 [4]; 36-hour replication assay, HFF) | plaque formation of cps1-1, cps2-1, cps1 and cps2 (cps1-1 and cps2-1 [4]; 2000 or 4000 μM uracil) | uracil concentration above which growth rate is reduced significantly (cps1-1 and cps2-1 [4]; cps1-1, cps2-1) [µM] | rescue of plaque formation of cps1-1 and cps2-1 (cps1-1 and cps2-1 [4]; plaque assay) | rescue of plaque formation of cps1-1 and cps2-1 (cps1-1 and cps2-1 [4]; pyrimidine concentrations up to 200 μM) | incorporation of [3H]-labeled pyrimidine into wild-type parasites (wild-type T. gondii) | actual incorporation (tachyzoites) | labeling of FUDR-1 mutant parasites with [3H]pyrimidine (FUDR-1 mutant parasites) | effect on RH parasite plaques (RH parasite)
Nc1nc(O)c2ncn(COC(CO)CO)c2n1 [ganciclovir] | 0.5 | loss of sensitivity | 0.5 |  |  |  |  |  |  |  |  |  |  | 
O=c1cc[nH]c(=O)[nH]1 [uracil] |  |  |  | completely rescued | plaques well | robust | do not even form plaques | > 500 | significant growth rescue | completely rescued | incorporated into wild-type T. gondii | 0.00032 pmoles pyrimidine per tachyzoite per 4 hours | not labeled | no effect
